# Measurements as given in ChEMBL document CHEMBL4184110 (Bioorg Med Chem Lett, 2018).
# Key:
# HEK-293T = assay: Cytotoxicity against HEK293T cells assessed as decrease in cell viability at 100 uM after 18 hrs by Cell Titer-Glo based luminescence assay relative to control; settings: human
# Vitamin D3 receptor [1] = biological target: T1, Vitamin D3 receptor (Homo sapiens, UniProt P11473); assay: Antagonist activity at CMV-fused VDR (unknown origin) expressed in HEK293T cells assessed as reduction in 24-hydroxylase promoter mediated transcriptional activity by luciferase reporter gene assay; assay type: cell-based
# T1 sequence (P11473 whole entry): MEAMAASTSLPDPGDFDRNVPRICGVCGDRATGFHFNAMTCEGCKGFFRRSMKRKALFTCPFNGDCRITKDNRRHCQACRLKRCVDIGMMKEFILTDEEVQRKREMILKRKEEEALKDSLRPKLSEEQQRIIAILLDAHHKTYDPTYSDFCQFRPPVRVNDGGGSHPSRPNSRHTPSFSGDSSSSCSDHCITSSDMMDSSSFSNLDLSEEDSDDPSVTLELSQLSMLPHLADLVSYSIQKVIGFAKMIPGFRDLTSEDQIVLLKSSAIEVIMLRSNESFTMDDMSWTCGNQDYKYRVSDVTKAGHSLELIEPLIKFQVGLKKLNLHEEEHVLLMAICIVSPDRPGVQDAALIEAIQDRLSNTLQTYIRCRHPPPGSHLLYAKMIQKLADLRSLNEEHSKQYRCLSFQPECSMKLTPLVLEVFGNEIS
# [2] = Aqueous solubility of the compound in DMSO at 500 uM by filter based assay; assay type: physicochemical
# Vitamin D3 receptor [3] = biological target: T1, Vitamin D3 receptor; assay: Antagonist activity at VP16-fused VDR-LBD (unknown origin) expressed in HEK293T cells assessed as inhibition of ligand-induced GAL4-fused SRC1 coactivator recruitment by two-hybrid luciferase reporter gene assay; assay type: cell-based
# Vitamin D3 receptor [4] = biological target: T1, Vitamin D3 receptor; assay: Agonist activity at VDR-LBD (unknown origin) assessed as recruitment of alexa fluor 647-labeled SRC2-3 after 30 mins by fluorescence polarization assay
# Vitamin D3 receptor [5] = biological target: T1, Vitamin D3 receptor; assay: Antagonist activity at VDR-LBD (unknown origin) assessed as inhibition of LG190178-induced recruitment of alexa fluor 647-labeled SRC2-3 after 30 mins by fluorescence polarization assay
# [6] = biological target: T2, Peroxisome proliferator-activated receptor delta (Homo sapiens, UniProt Q03181); assay: Transactivation of CMV-fused PPARdelta-LBD-GAL4-DBD (unknown origin) expressed in HEK293T cells by luciferase reporter gene assay; assay type: cell-based
# T2 sequence (Q03181 whole entry): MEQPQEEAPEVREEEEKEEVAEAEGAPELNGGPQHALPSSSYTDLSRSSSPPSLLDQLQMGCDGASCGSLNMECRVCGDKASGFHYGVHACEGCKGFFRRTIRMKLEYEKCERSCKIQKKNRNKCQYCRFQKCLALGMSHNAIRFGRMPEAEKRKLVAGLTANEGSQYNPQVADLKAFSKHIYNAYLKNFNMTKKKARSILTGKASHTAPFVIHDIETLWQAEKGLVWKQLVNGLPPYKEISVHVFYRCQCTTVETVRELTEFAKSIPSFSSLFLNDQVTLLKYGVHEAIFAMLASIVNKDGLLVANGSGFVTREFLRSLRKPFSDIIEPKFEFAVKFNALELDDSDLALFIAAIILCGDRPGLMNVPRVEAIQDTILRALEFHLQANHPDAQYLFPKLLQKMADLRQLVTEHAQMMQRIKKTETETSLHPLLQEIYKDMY
# [7] = biological target: T3, Peroxisome proliferator-activated receptor delta (Homo sapiens) (UniProt Q03181); assay: Transactivation of CMV-fused PPARdelta-LBD-GAL4-DBD (unknown origin) expressed in HEK293T cells at 100 uM by luciferase reporter gene assay relative to GW0742; assay type: cell-based
# T3 sequence (whole entry): T2 sequence (Q03181 whole entry)
SMILES,Activity (HEK-293T),IC50 (Vitamin D3 receptor [1]; read-out: IC50) [µM],solubility kinetic at 500 µM [2] [µM],IC50 (Vitamin D3 receptor [3]) [µM],EC50 (Vitamin D3 receptor [4]),IC50 (Vitamin D3 receptor [5]),EC50 [6],IC50 (Vitamin D3 receptor [1]),EC50 ([6]; read-out: EC50) [µM],Activity [7] [%]
COC(=O)c1ccccc1OCc1oc(-c2cccc(OC)c2)nc1C,94.6%,6.75,52.8,15.4,Not Active,Not Active,Not Active,–,–,–
COC(=O)CCc1ccc(OCc2oc(-c3ccccc3OC)nc2C)cc1,79.9%,10.1,62.6,13.6,Not Active,Not Active,Not Active,–,–,–
COc1ccccc1-c1nc(C)c(COc2ccc(CC(=O)O)cc2)o1,Non-Toxic,–,436,> 80,Not Active,Not Active,–,Not Active,11,48
COc1ccccc1-c1nc(C)c(COc2ccc(C(=O)O)cc2)o1,Non-Toxic,–,460,> 80,Not Active,Not Active,–,Not Active,8.7,16
COC(=O)CCc1ccc(OCc2oc(-c3cccc(OC)c3)nc2C)cc1,67.6%,2.88,38.2,6.7,Not Active,Not Active,–,–,1.09,7.7
COC(=O)c1cccc(OCc2oc(-c3cccc(OC)c3)nc2C)c1,59.3%,5.56,24.1,17.1,Not Active,Not Active,Not Active,–,–,–
COc1cccc(-c2nc(C)c(COc3cccc(C(=O)O)c3)o2)c1,23.9%,33.2,498,33.1,Not Active,Not Active,Not Active,–,–,–
COC(=O)c1ccc(OCc2oc(-c3ccccc3OC)nc2C)cc1,81.5%,4.85,62.6,17.9,Not Active,Not Active,Not Active,–,–,–
COc1cccc(-c2nc(C)c(COc3ccc(CC(=O)O)cc3)o2)c1,34.5%,3.6,410,27.7,Not Active,Not Active,–,–,1.8,8.5
COc1ccccc1-c1nc(C)c(COc2ccc(CCC(=O)O)cc2)o1,2.1%,> 80,400,> 100,Not Active,Not Active,–,–,4.6,30
COc1cccc(-c2nc(C)c(COc3ccc(C(=O)O)cc3)o2)c1,27.2%,> 100,457,> 80,Not Active,Not Active,–,–,2.6,2.1
COc1ccccc1-c1nc(C)c(COc2ccccc2C(=O)O)o1,4.1%,–,402,> 80,Not Active,Not Active,Not Active,Not Active,–,–
COc1cccc(-c2nc(C)c(COc3ccccc3C(=O)O)o2)c1,37.3%,40.4,264,> 33,Not Active,Not Active,Not Active,–,–,–
COc1ccccc1-c1nc(C)c(COc2cccc(C(=O)O)c2)o1,Non-Toxic,–,423,> 100,Not Active,Not Active,–,Not Active,0.88,22
COC(=O)c1ccccc1OCc1oc(-c2ccccc2OC)nc1C,54.1%,3.25,185,20.2,Not Active,Not Active,Not Active,–,–,–
COc1cccc(-c2nc(C)c(COc3ccc(CCC(=O)O)cc3)o2)c1,41.2%,3.35,234,26.7,Not Active,Not Active,–,–,1.4,13.7
